Reference: paper PMC13065040 (PLOS One, 2026)
Several values for one entry are separate records, joined by “and”; a condition that tells them apart may be missing. Equal values may be shown once. Where a SMILES comes first, the peptide text is derived from it. Bridges are numbered along the chain shown (N, C = ends).

Columns and labels:
MMP-2 [1] = target: T1, MMP-2 (Homo sapiens, UniProt P08253); assay: Differential scanning fluorimetry (DSF); assay type: binding; set-up: Dtm (ΔTm): unit not given here; conditions: for Dtm (ΔTm), average: average of replicates
T1 construct: ProSpec Bio; Antibodies-Online; Elabscience; Abcam ENZ-769; ABIN7400042; PKSH033450
T1 sequence (P08253 110-660): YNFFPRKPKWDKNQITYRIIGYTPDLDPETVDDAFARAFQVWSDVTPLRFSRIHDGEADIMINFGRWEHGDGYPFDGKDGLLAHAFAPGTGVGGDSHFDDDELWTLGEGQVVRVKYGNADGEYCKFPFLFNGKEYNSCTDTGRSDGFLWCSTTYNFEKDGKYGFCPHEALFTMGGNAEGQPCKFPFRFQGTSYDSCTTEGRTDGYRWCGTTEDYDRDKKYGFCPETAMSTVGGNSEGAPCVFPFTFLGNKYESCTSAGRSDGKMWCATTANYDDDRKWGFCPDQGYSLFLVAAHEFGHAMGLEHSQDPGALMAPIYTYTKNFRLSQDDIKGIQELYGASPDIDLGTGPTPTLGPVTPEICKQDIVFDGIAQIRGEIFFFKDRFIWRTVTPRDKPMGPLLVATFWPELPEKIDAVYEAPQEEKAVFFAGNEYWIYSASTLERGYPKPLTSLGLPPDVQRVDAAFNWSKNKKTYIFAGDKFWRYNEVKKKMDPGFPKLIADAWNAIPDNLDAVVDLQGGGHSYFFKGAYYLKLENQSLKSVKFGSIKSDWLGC
Method: The melting temperatures (Tm) of recombinant MMP-2 and its complexes with peptides were ascertained using BioRad CFX384 Touch real-time PCR (Hercules, CA, USA). The experiments were performed as previously described. The unfolding of the protein was detected using the fluorescent SYPRO-orange dye (Invitrogen, Carlsbad, CA, USA). MMP-2 and prospective ligand peptides were dissolved in 7.1 pH phosphate buffered saline (154 mM NaCl, 5.6 mM Na2PO4, 1.1 mM KH2PO4), and the reaction mixture was made to a final concentration of 1 µM of protein, either 30 µM ([…]) of peptide, and 1000x dilution of the SYPRO-Orange dye stock from the manufacturer. Excitation and emission filters of the dye were set at 450 − 490 nm and 560 − 580 nm, respectively. The temperature for the reaction was held at 25 °C for 5 min, and then a gradient of 25 °C to 95 °C was applied at a rate of 0.3 °C/min, and the fluorescence was recorded. To determine Tm of the protein, the first derivatives of melting curves were plotted using GraphPad Prism software, version 10.0.3.

Neuropilin-1 (NRP-1) = target: T2, Neuropilin-1 (NRP-1) (Homo sapiens, UniProt O14786); assay: Surface plasmon resonance (SPR), immobilized NRP-1; assay type: binding; conditions: NTA chip, steady-state affinity model, pH 7.4, n = 3, 4 replicates, read-out: dissociation constant (KD) for NRP-1
T2 construct: containing amino acid residues Phe22-Lys644, with a poly-histidine tag at the C-terminus; purchased ACROBiosystems NR1-H5228
T2 sequence (O14786 22-644 isoform O14786-2): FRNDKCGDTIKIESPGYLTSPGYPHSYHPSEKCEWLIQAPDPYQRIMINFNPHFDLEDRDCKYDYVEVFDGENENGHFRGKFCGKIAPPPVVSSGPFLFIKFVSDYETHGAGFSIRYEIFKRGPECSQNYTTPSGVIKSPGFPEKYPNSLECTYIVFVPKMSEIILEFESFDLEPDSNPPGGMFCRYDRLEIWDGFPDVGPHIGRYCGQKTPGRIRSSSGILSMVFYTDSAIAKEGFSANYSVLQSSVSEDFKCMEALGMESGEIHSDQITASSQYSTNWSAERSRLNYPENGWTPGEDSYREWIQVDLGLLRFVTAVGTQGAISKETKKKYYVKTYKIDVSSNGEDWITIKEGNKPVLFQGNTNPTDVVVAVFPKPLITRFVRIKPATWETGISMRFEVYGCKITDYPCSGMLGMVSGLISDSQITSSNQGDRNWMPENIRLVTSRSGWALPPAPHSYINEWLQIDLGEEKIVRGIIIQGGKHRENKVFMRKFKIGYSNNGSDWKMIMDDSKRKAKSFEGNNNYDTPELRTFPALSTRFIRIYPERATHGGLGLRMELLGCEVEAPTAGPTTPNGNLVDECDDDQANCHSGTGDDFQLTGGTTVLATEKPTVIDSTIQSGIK
Method: Surface plasmon resonance (SPR) reagents, plates, and the NTA chip were purchased from GE Healthcare Life Sciences, now Cytiva (Marlborough, MA, USA). Measurements were performed using the Biacore 8000 SPR System (Marlborough, MA. USA). The running buffer used for protein immobilization and peptide binding consisted of 20 mM Tris, 150 mM NaCl, […] and 0.0005% Tween-20, adjusted to pH 7.4. MMP-2 and NRP-1 were immobilized onto the NTA chip at 15 nM and 25 nM concentration, respectively. Peptides were injected over the immobilized proteins using two-fold serial dilutions from 500 µM to 3.90 µM. Three experiments with four replicates of each were performed. The SPR response curves generated from the Biacore Insight Evaluation Software were fitted to a steady-state affinity model to obtain an equilibrium dissociation constant (KD) for each peptide — protein interaction.

MMP-2 [2] = target: T3, MMP-2 (Homo sapiens, UniProt P08253); assay: MMP-2 inhibition assay (Enzo kit, OmniMMP RED fluorogenic substrate); assay type: biochemical
T3 construct: purchased Enzo Life Sciences (MMP-2 drug discovery kit)
Method: The MMP-2 inhibition assay was performed using the Enzo Life Sciences MMP-2 drug discovery kit. and the quenched fluorogenic substrate OmniMMP RED. Reference substrate was diluted to a final concentration of 5 μM, while the MMP-2 enzyme was diluted to 58 mU/µL, and the N-Isobutyl-N-(4-methoxyphenylsulfonyl)glycyl hydroxamic acid (NNGH) inhibitor was diluted to a concentration of 1/200 in assay buffer. […] The assay was performed using a black 96-well microplate. Fluorescence was measured at excitation/emission wavelengths of 545/576 nm, with a cutoff at 570 nm using Gen5 microplate reader (BioTeK, Shoreline, WA). Baseline fluorescence was recorded before adding NNGH inhibitor which was used as a positive control for MMP-2 inhibition. Reaction mixtures in the plate were incubated at 37 °C for 10 min, and fluorescence was measured at 10 min intervals for the first 30 min, then at 30 min intervals until 2 h had elapsed. […] Statistical analysis was performed using ANOVA with GraphPad Prism software, version 10.0.3.

[3] = peptide 30, P75/P76 experiment 1, replicate 1
[4] = peptide 30, P75/P76 experiment 1, replicate 2
[5] = peptide 30, P75/P76 experiment 1, replicate 3
[6] = peptide 30, P75/P76 experiment 2, replicate 1
[7] = peptide 30, P75/P76 experiment 2, replicate 2
[8] = peptide 30, P75/P76 experiment 2, replicate 3
[9] = peptide 30, P75/P76 experiment 3, replicate 1
[10] = peptide 30, P75/P76 experiment 3, replicate 2
[11] = peptide 30, P75/P76 experiment 3, replicate 3
[12] = peptide 50, P75/P76 experiment 1, replicate 2
[13] = peptide 50, P75/P76 experiment 1, replicate 3
[14] = peptide 50, P75/P76 experiment 2, replicate 1
[15] = peptide 50, P75/P76 experiment 2, replicate 2
[16] = peptide 50, P75/P76 experiment 2, replicate 3
[17] = peptide 50, P75/P76 experiment 3, replicate 1
[18] = peptide 50, P75/P76 experiment 3, replicate 2
[19] = peptide 50, P75/P76 experiment 3, replicate 3

CC(=O)NCC(=O)N[C@@H](CCCNC(=N)N)C(=O)NCC(=O)N[C@@H](CCCCN)C(=O)N[C@H]1CSSC[C@@H](C(=O)N[C@@H](CC(C)C)C(=O)N[C@@H](CO)C(=O)N[C@@H](CCCNC(=N)N)C(N)=O)NC(=O)[C@H](CCC(N)=O)NC(=O)[C@@H]2CCCN2C(=O)CNC(=O)[C@H](Cc2ccc(O)cc2)NC1=O [P75, Ac-[Ser^35,Cyc(28,33)]Ctx(24–36)-NH2] (Ac-GRGKCYGPQCLSR-NH2; disulfide 5-10)
Dtm (ΔTm) (MMP-2 [1]; [3]): 1.067
Dtm (ΔTm) (MMP-2 [1]; [4]): 1.067
Dtm (ΔTm) (MMP-2 [1]; [5]): 1.367
Dtm (ΔTm) (MMP-2 [1]; [6]): 0.6
Dtm (ΔTm) (MMP-2 [1]; [7]): 0.6
Dtm (ΔTm) (MMP-2 [1]; [8]): 0.6
Dtm (ΔTm) (MMP-2 [1]; [9]): 0.2
Dtm (ΔTm) (MMP-2 [1]; [10]): -0.4
Dtm (ΔTm) (MMP-2 [1]; [11]): -0.1
Dtm (ΔTm), average (MMP-2 [1]; peptide 50 (µM per method)): 0.7556
Kd (Neuropilin-1 (NRP-1)): 330 ± 146 µM

COc1ccc(S(=O)(=O)N(CC(=O)NO)CC(C)C)cc1 [NNGH, N-Isobutyl-N-(4-methoxyphenylsulfonyl)glycyl hydroxamic acid]
MMP-2 enzymatic activity, percent of control (MMP-2 [2]): 11.2096 and 16.193

CC(=O)N[C@@H](CCCCN)C(=O)N[C@H]1CSSC[C@@H](C(=O)N[C@@H](CC(C)C)C(N)=O)NC(=O)[C@H](CCC(N)=O)NC(=O)[C@@H]2CCCN2C(=O)CNC(=O)[C@H](Cc2ccc(O)cc2)NC1=O [P78, Ac-[Cyc(28,33)]Ctx(27–34)-NH2] (Ac-KCYGPQCL-NH2; disulfide 2-7)
Kd (Neuropilin-1 (NRP-1)): 267 ± 103 µM

Ac-[Cys^26,Ser^28,33,Cyc(26,35)]Ctx(24–36)-NH2 [P76]
ΔTm ± SD, change in melting temperature of MMP-2 (MMP-2 [1]; 1 µM MMP-2, 30 µM (Ctx) or 50 µM (P75 and P76) peptide, PBS pH 7.1, SYPRO-Orange, average and SD of n ≥ 3, SD): 0.63 ± 0.36 °C
Dtm (ΔTm), average (MMP-2 [1]; peptide 30 (µM per method)): 0.6556
Dtm (ΔTm) (MMP-2 [1]; [3]): -0.7333
Tm of MMP-2 with peptide (MMP-2 [1]; [3]): 45.7 °C
Dtm (ΔTm) (MMP-2 [1]; [4]): -0.4333
Tm of MMP-2 with peptide (MMP-2 [1]; [4]): 46 °C
Dtm (ΔTm) (MMP-2 [1]; [5]): 0.1667
Tm of MMP-2 with peptide (MMP-2 [1]; [5]): 46.6 °C
Dtm (ΔTm) (MMP-2 [1]; [6]): 1.8
Tm of MMP-2 with peptide (MMP-2 [1]; [6]): 48.7 °C
Dtm (ΔTm) (MMP-2 [1]; [7]): 1.5
Tm of MMP-2 with peptide (MMP-2 [1]; [7]): 48.4 °C
Dtm (ΔTm) (MMP-2 [1]; [8]): 1.8
Tm of MMP-2 with peptide (MMP-2 [1]; [8]): 48.7 °C
Dtm (ΔTm) (MMP-2 [1]; [9]): 0.5
Tm of MMP-2 with peptide (MMP-2 [1]; [9]): 47.8 °C
Dtm (ΔTm) (MMP-2 [1]; [10]): 0.5
Tm of MMP-2 with peptide (MMP-2 [1]; [10]): 47.8 °C
Dtm (ΔTm) (MMP-2 [1]; [11]): 0.8
Tm of MMP-2 with peptide (MMP-2 [1]; [11]): 48.1 °C
Dtm (ΔTm), average (MMP-2 [1]; peptide 50 (µM per method)): 0.6222
Tm of MMP-2 with peptide (MMP-2 [1]; peptide 50, P75/P76 experiment 1, replicate 1): 47.8 °C
Dtm (ΔTm) (MMP-2 [1]; [12]): 0.6
Tm of MMP-2 with peptide (MMP-2 [1]; [12]): 47.8 °C
Dtm (ΔTm) (MMP-2 [1]; [13]): 0.6
Tm of MMP-2 with peptide (MMP-2 [1]; [13]): 47.8 °C
Dtm (ΔTm) (MMP-2 [1]; [14]): 0.5
Tm of MMP-2 with peptide (MMP-2 [1]; [14]): 47.4 °C
Dtm (ΔTm) (MMP-2 [1]; [15]): 1.2
Tm of MMP-2 with peptide (MMP-2 [1]; [15]): 48.1 °C
Dtm (ΔTm) (MMP-2 [1]; [16]): 1.2
Tm of MMP-2 with peptide (MMP-2 [1]; [16]): 48.1 °C
Dtm (ΔTm) (MMP-2 [1]; [17]): 0.2
Tm of MMP-2 with peptide (MMP-2 [1]; [17]): 47.5 °C
Dtm (ΔTm) (MMP-2 [1]; [18]): 0.5
Tm of MMP-2 with peptide (MMP-2 [1]; [18]): 47.8 °C
Dtm (ΔTm) (MMP-2 [1]; [19]): 0.2
Tm of MMP-2 with peptide (MMP-2 [1]; [19]): 47.5 °C
inhibition of MMP-2 enzymatic activity (Fig 10B) (MMP-2 [2]; peptides at 1 µM, 50 µM and 100 µM, one-way ANOVA vs control): not statistically significant
